Measurements taken from article PMC5503199 (Molecular microbiology, 2009).
Read-outs that look alike come from different tables or passages of the source.

Assays:
CbcWV with BetXDC3000 = format: cell-based, Pseudomonas syringae pv. tomato; conditions: MKH13; pNcbcWV, pT-D3758; SBP BetXDC3000; substrate 10 μM; single replication
CbcX and CaiX with CbcWV = format: cell-based, Pseudomonas aeruginosa; conditions: MKH13, pNcbcXWV, pT-PA5388, SBPs CbcX/CaiX, competitor 1 mM
[1] = test system: S. meliloti Cho transporter ChoXWV; format: cell-based, Sinorhizobium meliloti; conditions: MKH13; pNchoXWV, Plasmid 2 None; SBP ChoX; substrate 10 μM; single replication
[2] = test system: complete Cbc transporter CbcXWV (PAO1); format: cell-based, Pseudomonas aeruginosa; conditions: for Total uptake: pNcbcXWV; for choline uptake by CbcXWV: BT strain derivatives
[3] = test system: Cbc core transporter CbcWV; format: cell-based, Pseudomonas aeruginosa; conditions: MKH13, pNcbcWV, SBP None, substrate 10 μM, single replication
BetX with CbcWV = biological target: T1, BetX with CbcWV (Pseudomonas aeruginosa, UniProt Q9HZ04); assay: Competitive uptake, MKH13 expressing cbcWV and betX; format: cell-based; conditions: pNcbcWV, pT-PA3236, SBP BetX, [^14C]betaine 10 μM, competitor 1 mM
T1 sequence (Q9HZ04 26-285): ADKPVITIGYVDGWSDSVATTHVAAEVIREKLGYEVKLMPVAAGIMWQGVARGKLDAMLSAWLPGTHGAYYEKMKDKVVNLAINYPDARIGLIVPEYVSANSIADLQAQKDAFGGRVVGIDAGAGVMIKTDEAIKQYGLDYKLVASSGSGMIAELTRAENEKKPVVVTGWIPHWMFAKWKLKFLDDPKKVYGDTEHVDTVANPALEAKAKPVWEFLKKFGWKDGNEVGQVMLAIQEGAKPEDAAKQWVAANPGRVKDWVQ
T1 sequence (Q9HTI7 1-279 partner): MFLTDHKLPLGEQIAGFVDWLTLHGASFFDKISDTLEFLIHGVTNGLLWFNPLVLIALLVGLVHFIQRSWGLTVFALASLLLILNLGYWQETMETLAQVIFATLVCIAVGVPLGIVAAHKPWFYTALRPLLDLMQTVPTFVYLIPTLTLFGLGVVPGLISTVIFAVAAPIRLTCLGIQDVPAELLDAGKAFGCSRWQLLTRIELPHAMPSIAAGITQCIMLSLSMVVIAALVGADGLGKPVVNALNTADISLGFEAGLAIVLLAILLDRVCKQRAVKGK
T1 sequence (Q9HTI8 1-392 partner): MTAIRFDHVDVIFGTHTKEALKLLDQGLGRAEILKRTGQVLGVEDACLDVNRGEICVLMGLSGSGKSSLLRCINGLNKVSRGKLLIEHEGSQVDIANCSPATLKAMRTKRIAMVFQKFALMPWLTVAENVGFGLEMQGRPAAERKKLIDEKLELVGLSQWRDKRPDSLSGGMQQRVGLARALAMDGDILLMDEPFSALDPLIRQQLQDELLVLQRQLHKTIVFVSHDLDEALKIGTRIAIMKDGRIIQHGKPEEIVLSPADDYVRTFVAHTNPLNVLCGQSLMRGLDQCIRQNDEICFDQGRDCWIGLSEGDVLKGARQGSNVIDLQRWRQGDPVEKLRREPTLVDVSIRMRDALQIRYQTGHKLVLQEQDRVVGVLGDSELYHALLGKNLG

CbcWV with CaiXB728a = format: cell-based, Pseudomonas syringae pv. syringae; conditions: MKH13; pNcbcWV, pT-B2916; SBP CaiXB728a; substrate 10 μM; single replication
[4] = test system: S. meliloti ChoXWV transporter; format: cell-based, Sinorhizobium meliloti
CbcXWV from B728a = format: cell-based, Pseudomonas syringae pv. syringae; conditions: Acella, pET-cbcB728a; 1 mM IPTG; substrate 1 mM; single colony
[5] = test system: cbcXWV from B728a in QAC transporter-deficient BT strain; format: cell-based, Pseudomonas syringae pv. syringae; conditions: BT(pCbcB728a), unlabelled competitor 0.5 mM, 10 min
CaiX with CbcWV = format: cell-based, Pseudomonas aeruginosa; conditions: MKH13; pNcbcWV, pT-PA5388; SBP CaiX; [^14C]carnitine 10 μM; competitor 1 mM
[6] = test system: cbcXWV from PAO1 in QAC transporter-deficient BT strain; format: cell-based, Pseudomonas aeruginosa; conditions: BT(pCbcPAO1), unlabelled competitor 0.5 mM, 10 min
[7] = test system: E. coli strains MKH13 and Acella; assay: Total uptake by E. coli strains carrying empty vector; format: cell-based, Escherichia coli
[8] = host BT0028Ko, substrate 10 μM, mean (SE), n = 2
[9] = host BT2916Ko, substrate 10 μM, single replication
[10] = host BT3758Ko, substrate 10 μM, mean (SE), n = 3
[11] = pNchoXW, host BT0028Ko, substrate 10 μM, mean (SE), n = 2
[12] = pNchoXW, host BT3758Ko, substrate 10 μM, mean (SE), n = 3
[13] = pNchoXWV, host BT2916Ko, substrate 10 μM, single replication
[14] = Acella, pET15b, 1 mM IPTG, substrate 1 mM, single colony
[15] = MKH13, pME6041, radiolabelled substrate 1 mM, mean (SE), n = 10

Compound	Total uptake (CbcWV with BetXDC3000)	% inhibition of uptake of substrate by unlabelled competitor (CbcX and CaiX with CbcWV; [^14C]betaine 10 μM) [%]	% inhibition of uptake of substrate by unlabelled competitor (CbcX and CaiX with CbcWV; [^14C]choline 10 μM) [%]	Total uptake [1]	Total uptake [2, 8]	Total uptake [2, 9]	Total uptake [2, 10]	Total uptake ([3]; Plasmid 2 None)	Total uptake ([3]; pTOK2T)	% inhibition of uptake of substrate by unlabelled competitor (BetX with CbcWV) [%]	Total uptake (CbcWV with CaiXB728a)	Total uptake [4, 11]	Total uptake [4, 12]	Total uptake [4, 13]	Total uptake (CbcXWV from B728a)	% inhibition of uptake of [^14C]substrate ([5]; [^14C]betaine 5 μM) [%]	% inhibition of uptake of [^14C]substrate ([5]; [^14C]carnitine 5 μM) [%]	% inhibition of uptake of [^14C]substrate ([5]; [^14C]choline 5 μM) [%]	% inhibition of uptake of substrate by unlabelled competitor (CaiX with CbcWV) [%]	% inhibition of uptake of [^14C]substrate ([6]; [^14C]betaine 5 μM) [%]	other results
C[N+](C)(C)CC(=O)O [Betaine, glycine betaine]	6.1 nmol (mg protein)^−1	88	−1	2.7 nmol (mg protein)^−1	16.1 (0.41) nmol (mg protein)^−1	16.0 nmol (mg protein)^−1	14.3 (0.24) nmol (mg protein)^−1	0 nmol (mg protein)^−1	0 nmol (mg protein)^−1	94	0 nmol (mg protein)^−1	2.8 (0.3) nmol (mg protein)^−1	3.0 (0.64) nmol (mg protein)^−1	3.0 nmol (mg protein)^−1	16.2 nmol (mg protein)^−1	93	83	19	5	83	% inhibition of uptake of [^14C]substrate ([6]; [^14C]carnitine 5 μM): 84%; % inhibition of uptake of [^14C]substrate ([6]; [^14C]choline 5 μM): 9%; Total uptake [7, 14]: 8.2 nmol (mg protein)^−1; Total uptake [7, 15]: 0.5 (0.5) nmol (mg protein)^−1
C[N+](C)(C)C[C@H](O)CC(=O)[O-] [Carnitine, L-carnitine]	0 nmol (mg protein)^−1	10	−2	0 nmol (mg protein)^−1	7.0 (0.4) nmol (mg protein)^−1	0.5 nmol (mg protein)^−1	13.0 (0.3) nmol (mg protein)^−1	0 nmol (mg protein)^−1	0 nmol (mg protein)^−1	3	3.7 nmol (mg protein)^−1	1.2 (0.1) nmol (mg protein)^−1	1.8 (0.4) nmol (mg protein)^−1	0.1 nmol (mg protein)^−1	0 nmol (mg protein)^−1	5	93	5	91	2	% inhibition of uptake of [^14C]substrate ([6]; [^14C]carnitine 5 μM): 94%; % inhibition of uptake of [^14C]substrate ([6]; [^14C]choline 5 μM): 1%; Total uptake [7, 14]: 0 nmol (mg protein)^−1; Total uptake [7, 15]: 0.5 (0.3) nmol (mg protein)^−1
C[N+](C)(C)CCO [Choline, choline]	0 nmol (mg protein)^−1	99	96	4.7 nmol (mg protein)^−1	18.2 (0.36) nmol (mg protein)^−1	16.2 nmol (mg protein)^−1	16.4 (0.18) nmol (mg protein)^−1	0 nmol (mg protein)^−1	0 nmol (mg protein)^−1	−8	0 nmol (mg protein)^−1	7.8 (0.07) nmol (mg protein)^−1	8.6 (1.28) nmol (mg protein)^−1	6.5 nmol (mg protein)^−1	19.2 nmol (mg protein)^−1	3	75	93	5	−6	choline uptake by CbcXWV ([2]; choline 10 μM (summary of Table 4)): 16 to 18 nmol (mg protein)^−1; choline uptake by CbcXWV ([2]; choline 1 mM (summary of Table 4)): 562–648 nmol (mg protein)^−1; share of choline uptake mediated by CbcX ([2]; at low (10 μM) and high (1 mM) [^14C]choline concentrations, BT derivatives): approximately 99%; Total uptake ([2]; host BT0028Ko, substrate 1 mM, mean (SE), n = 2): 562 (6.8) nmol (mg protein)^−1; Total uptake ([2]; host BT2916Ko, substrate 1 mM, single replication): 644 nmol (mg protein)^−1; Total uptake ([2]; host BT3758Ko, substrate 1 mM, mean (SE), n = 3): 648 (27.5) nmol (mg protein)^−1; Total uptake ([4]; pNchoXW, host BT0028Ko, substrate 1 mM, mean (SE), n = 2): 8.5 (1.4) nmol (mg protein)^−1; Total uptake ([4]; pNchoXW, host BT3758Ko, substrate 1 mM, mean (SE), n = 3): 7.4 (0.8) nmol (mg protein)^−1; Total uptake ([4]; pNchoXWV, host BT2916Ko, substrate 1 mM, single replication): 6.1 nmol (mg protein)^−1; % inhibition of uptake of [^14C]substrate ([6]; [^14C]carnitine 5 μM): 77%; % inhibition of uptake of [^14C]substrate ([6]; [^14C]choline 5 μM): 84%; Total uptake [7, 14]: 0 nmol (mg protein)^−1; Total uptake [7, 15]: 0.2 (0.1) nmol (mg protein)^−1
